Tests used:
[1] = Solubility of monomers, mixing 10% of the monomer with a variety of solvents; type: physicochemical; settings: 10% by weight in solvent
[2] = octanol/water partition, P=Coctanol/Cwater; cited from earlier work

Structure (SMILES): C=CC(=O)NC(C)(C)CS(=O)(=O)O.CCCCCCCCCCCCN(C)C [Example 8, 2-acrylamido-2-methylpropanesulfonic acid/N,N-dimethyl-n-dodecylamine salt]
- Solubility in Butyl Acetate [1]: clear
- Solubility in Ethanol [1]: clear
- Solubility in Ethyl Acetate [1]: clear
- Solubility in Isopropanol [1]: clear
- Solubility in Styrene [1]: clear
- Solubility in Toluene [1]: clear
- Solubility in Water [1]: clear

Structure (SMILES): C=CC(=O)NC(C)(C)CS(=O)(=O)O [Example 7, 2-acrylamido-2-methylpropanesulfonic acid]
- Solubility in Butyl Acetate [1]: insoluble
- Solubility in Ethanol [1]: insoluble
- Solubility in Ethyl Acetate [1]: insoluble
- Solubility in Isopropanol [1]: not fully soluble
- Solubility in Styrene [1]: insoluble
- Solubility in Toluene [1]: insoluble
- Solubility in Water [1]: clear

Structure (SMILES): CCc1ccccc1 [ethylbenzene]
- log P [2]: about 3.1

Structure (SMILES): C=CC(=O)NC(C)(C)CS(=O)(=O)O.CCCCC(CC)CN [Example 9, 2-acrylamido-2-methylpropanesulfonic acid/2-ethylhexylamine salt]
- Solubility in Butyl Acetate [1]: trace oil
- Solubility in Ethanol [1]: clear
- Solubility in Ethyl Acetate [1]: clear
- Solubility in Isopropanol [1]: clear
- Solubility in Water [1]: clear

Structure (SMILES): C=CC(=O)O [acrylic acid]
- log P [2]: about 0.4

— patent US20080221253A1, “Lipophilic Properties of 2-Acrylamido-2-Methylpropanesulfonic Acid” (THE LUBRIZOL CORPORATION, priority 2004, published 2008)
